pIC50: −log10 of the molar value. The source made the active and inactive calls. The calls are words filed in the database; no cut-off is given here.
Columns and labels:
[1] = system: HeLa; test: Antiproliferative activity against human HeLa cells measured after 48 hrs by MTT assay; type: functional, cell-based
[2] = system: HEK293; test: Cytotoxicity against HEK293 cells measured after 48 hrs by MTT assay; type: cell-based; conditions: Homo sapiens, HEK293, 48 h
[3] = system: A549; test: Antiproliferative activity against human A549 cells measured after 48 hrs by MTT assay; type: functional, cell-based; conditions: A549, 48 h
[4] = system: MCF7; test: Antiproliferative activity against human MCF7 cells measured after 48 hrs by MTT assay; type: functional, cell-based; conditions: MCF7, 48 h
[5] = system: T47D; test: Antiproliferative activity against human T47D cells measured after 48 hrs by MTT assay; type: functional, cell-based
[6] = species on record: Sus scrofa; test: Inhibition of pig brain tubulin polymerization at 10 uM measured at 1 min interval for 20 mins by spectrophotometric method relative to control
[7] = Inhibition of pig brain tubulin polymerization measured at 1 min interval for 20 mins by spectrophotometric method; parameters: species or system Sus scrofa
[8] = system: HeLa; test: Cell cycle arrest in human HeLa cells assessed as accumulation at G0/G1 phase at 12 nM measured after 24 hrs by propidium iodide staining based flow cytometry (reference value: 69.08%); type: functional
[9] = system: HeLa; test: Cell cycle arrest in human HeLa cells assessed as accumulation at G2M phase at 12 nM measured after 24 hrs by propidium iodide staining based flow cytometry (reference value: 11.14%); type: functional
[10] = system: HeLa; test: Cell cycle arrest in human HeLa cells assessed as accumulation at S phase at 12 nM measured after 24 hrs by propidium iodide staining based flow cytometry (reference value: 19.78%); type: functional
[11] = system: HeLa; test: Cell cycle arrest in human HeLa cells assessed as accumulation at G0/G1 phase at 24 nM measured after 24 hrs by propidium iodide staining based flow cytometry (reference value: 69.08%); type: functional
[12] = system: HeLa; test: Cell cycle arrest in human HeLa cells assessed as accumulation at G2M phase at 24 nM measured after 24 hrs by propidium iodide staining based flow cytometry (reference value: 11.14%); type: functional
[13] = system: HeLa; test: Cell cycle arrest in human HeLa cells assessed as accumulation at S phase at 24 nM measured after 24 hrs by propidium iodide staining based flow cytometry (reference value: 19.78%); type: functional
[14] = system: HeLa; test: Cell cycle arrest in human HeLa cells assessed as accumulation at G0/G1 phase at 48 nM measured after 24 hrs by propidium iodide staining based flow cytometry (reference value: 69.08%); type: functional
[15] = system: HeLa; test: Cell cycle arrest in human HeLa cells assessed as accumulation at G2M phase at 48 nM measured after 24 hrs by propidium iodide staining based flow cytometry (reference value: 11.14%); type: functional
[16] = system: HeLa; test: Cell cycle arrest in human HeLa cells assessed as accumulation at S phase at 48 nM measured after 24 hrs by propidium iodide staining based flow cytometry (reference value: 19.78%); type: functional
[17] = system: HeLa; test: Cell cycle arrest in human HeLa cells assessed as increase in accumulation at G2M phase measured after 24 hrs by propidium iodide staining based flow cytometry; type: functional
[18] = system: HeLa; test: Cell cycle arrest in human HeLa cells assessed as decrease in cyclin B1 expression measured after 24 hrs by Western blot analysis; type: functional, cell-based
[19] = system: HeLa; test: Cell cycle arrest in human HeLa cells assessed as decrease in cdc2 expression measured after 24 hrs by Western blot analysis; type: functional, cell-based
[20] = system: HeLa; test: Induction of apoptosis in human HeLa cells assessed as viable cells at 12 nM measured after 24 hrs by Annexin V-FITC/propidium iodide staining based flow cytometry (reference value: 93.6%); type: functional; conditions: read-out: Activity
[21] = system: HeLa; test: Induction of apoptosis in human HeLa cells assessed as early apoptotic cells at 12 nM measured after 24 hrs by Annexin V-FITC/propidium iodide staining based flow cytometry (reference value: 3.97%); type: functional
[22] = system: HeLa; test: Induction of apoptosis in human HeLa cells assessed as late apoptotic cells at 12 nM measured after 24 hrs by Annexin V-FITC/propidium iodide staining based flow cytometry (reference value: 2.34%); type: functional
[23] = system: HeLa; test: Induction of apoptosis in human HeLa cells assessed as necrotic cells at 12 nM measured after 24 hrs by Annexin V-FITC/propidium iodide staining based flow cytometry (reference value: 0.048%); type: functional
[24] = system: HeLa; test: Induction of apoptosis in human HeLa cells assessed as viable cells at 24 nM measured after 24 hrs by Annexin V-FITC/propidium iodide staining based flow cytometry (reference value: 93.6%); type: functional; conditions: read-out: Activity
[25] = system: HeLa; test: Induction of apoptosis in human HeLa cells assessed as early apoptotic cells at 24 nM measured after 24 hrs by Annexin V-FITC/propidium iodide staining based flow cytometry (reference value: 3.97%); type: functional
[26] = system: HeLa; test: Induction of apoptosis in human HeLa cells assessed as late apoptotic cells at 24 nM measured after 24 hrs by Annexin V-FITC/propidium iodide staining based flow cytometry (reference value: 2.34%); type: functional
[27] = system: HeLa; test: Induction of apoptosis in human HeLa cells assessed as necrotic cells at 24 nM measured after 24 hrs by Annexin V-FITC/propidium iodide staining based flow cytometry (reference value: 0.048%); type: functional
[28] = system: HeLa; test: Induction of apoptosis in human HeLa cells assessed as viable cells at 48 nM measured after 24 hrs by Annexin V-FITC/propidium iodide staining based flow cytometry (reference value: 93.6%); type: functional; conditions: read-out: Activity
[29] = system: HeLa; test: Induction of apoptosis in human HeLa cells assessed as early apoptotic cells at 48 nM measured after 24 hrs by Annexin V-FITC/propidium iodide staining based flow cytometry (reference value: 3.97%); type: functional
[30] = system: HeLa; test: Induction of apoptosis in human HeLa cells assessed as late apoptotic cells at 48 nM measured after 24 hrs by Annexin V-FITC/propidium iodide staining based flow cytometry (reference value: 2.34%); type: functional
[31] = system: HeLa; test: Induction of apoptosis in human HeLa cells assessed as necrotic cells at 48 nM measured after 24 hrs by Annexin V-FITC/propidium iodide staining based flow cytometry (reference value: 0.048%); type: functional
[32] = system: HeLa; test: Induction of apoptosis in human HeLa cells measured after 24 hrs by Annexin V-FITC/propidium iodide staining based flow cytometry; type: functional, cell-based
[33] = system: HeLa; test: Induction of apoptosis in human HeLa cells assessed as increase in PARP cleavage measured after 24 hrs by Western blot analysis; type: functional, cell-based
[34] = system: HeLa; test: Induction of apoptosis in human HeLa cells assessed as down regulation of Bcl-2 expression at 12 to 48 nM measured after 24 hrs by Western blot analysis; type: functional, cell-based; conditions: dose 12-48 nM
[35] = system: HeLa; test: Induction of microtubule disruption in human HeLa cells at 12 nM measured after 6 hrs by DAPI staining based immunofluorescence microscopy; type: cell-based

COc1cc(-c2nnc3ccc(-c4cccnc4OC)cn23)cc(OC)c1OC
pIC50 [1]: 4.69

COc1ccc(-c2nnc3ccc(-c4cc(OC)c(OC)c(OC)c4)cn23)cc1
pIC50 [1]: < 4.60

COc1cc(-c2nnc3ccc(-c4ccc(Cl)c(Cl)c4)cn23)cc(OC)c1OC
pIC50 [1]: 6.46

COc1cc(-c2nnc3ccc(-c4ccc(C)cc4)cn23)cc(OC)c1OC
pIC50 [1]: 7.47
pIC50 [2]: < 4.00
pIC50 [3]: 5.20
pIC50 [4]: < 4.00
pIC50 [5]: < 4.00
inhibition [6]: 77%
pIC50 [7]: 5.39

COc1ccc(-c2ccc3nnc(-c4cc(OC)c(OC)c(OC)c4)n3c2)cc1OC
pIC50 [1]: 6.92
pIC50 [3]: 4.06
pIC50 [4]: < 4.00
pIC50 [5]: < 4.00
inhibition [6]: 68%
pIC50 [7]: 4.95

COc1ccc(-c2ccc3nnc(-c4cc(OC)c(OC)c(OC)c4)n3c2)cc1N
pIC50 [1]: 7.92
pIC50 [2]: < 4.00
pIC50 [3]: 4.98
pIC50 [4]: 4.39
pIC50 [5]: 4.55
Activity [8]: 64.07%
Activity [9]: 13.9%
Activity [10]: 22.03%
Activity [11]: 51.59%
Activity [12]: 26%
Activity [13]: 22.41%
Activity [14]: 2.13%
Activity [15]: 92.65%
Activity [16]: 5.22%
Activity [17]: Dose-dependent effect
Activity [18]: Dose-dependent effect
Activity [19]: Dose-dependent effect
viability at 0.012 µM [20]: 91.4%
Activity [21]: 5.21%
Activity [22]: 3.23%
Activity [23]: 0.139%
viability at 0.024 µM [24]: 72.8%
Activity [25]: 18.9%
Activity [26]: 7.97%
Activity [27]: 0.373%
viability at 0.048 µM [28]: 45.8%
Activity [29]: 36.4%
Activity [30]: 16.9%
Activity [31]: 0.922%
Activity [32]: Dose-dependent effect
Activity [33]: Dose-dependent effect
Activity [34]: Active
inhibition [6]: 81%
pIC50 [7]: 5.47
Activity [35]: Active

COc1cc(-c2ccc3nnc(-c4ccc(F)cc4)n3c2)cc(OC)c1OC
pIC50 [1]: < 4.60

COc1ccc(-c2nnc3ccc(-c4cc(OC)c(OC)c(OC)c4)cn23)cc1N
pIC50 [1]: 5.40

COc1cc(-c2nnc3ccc(-c4ccc(C(F)(F)F)cc4)cn23)cc(OC)c1OC
pIC50 [1]: < 4.60

COc1ccc(-c2ccc3nnc(-c4cc(OC)c(OC)c(OC)c4)n3c2)cc1[N+](=O)[O-]
pIC50 [1]: 7.21
pIC50 [2]: < 4.00
pIC50 [3]: 4.23
pIC50 [4]: 4.12
pIC50 [5]: < 4.00
inhibition [6]: 36%

COc1cc(-c2nnc3ccc(-c4ccc([N+](=O)[O-])cc4)cn23)cc(OC)c1OC
pIC50 [1]: 7.64
pIC50 [2]: < 4.00

COc1cc(-c2ccc3nnc(-c4ccc(C)cc4)n3c2)cc(OC)c1OC
pIC50 [1]: < 4.60

COc1ccc(-c2ccc3nnc(-c4cc(OC)c(OC)c(OC)c4)n3c2)c(OC)c1
pIC50 [1]: 5.10

COc1cc(-c2nnc3ccc(-c4ccc5ccccc5c4)cn23)cc(OC)c1OC
pIC50 [1]: < 4.60

COc1ccc(-c2ccc3nnc(-c4cc(OC)c(OC)c(OC)c4)n3c2)cc1
pIC50 [1]: 6.71

COc1ccc(-c2ccc3nnc(-c4cc(OC)c(OC)c(OC)c4)n3c2)c(O)c1
pIC50 [1]: < 4.60

COc1cc(-c2ccc3nnc(-c4ccc(Cl)cc4)n3c2)cc(OC)c1OC
pIC50 [1]: < 4.60

COc1cc(C2=NC3=NC(C)=C(C(C)=O)C(c4ccc([N+](=O)[O-])cc4)N3N2)cc(OC)c1OC (configuration not stated)
pIC50 [1]: 6.12
pIC50 [2]: 4.52

COc1ccc(-c2nnc3ccc(-c4cc(OC)c(OC)c(OC)c4)cn23)cc1O
pIC50 [1]: 4.66

COc1cc(-c2nnc3ccc(-c4ccc(O)cc4)cn23)cc(OC)c1OC
pIC50 [1]: < 4.60

COc1cccc(-c2ccc3nnc(-c4cc(OC)c(OC)c(OC)c4)n3c2)c1
pIC50 [1]: 6.35

COc1cc(-c2nnc3ccc(-c4ccc(Cl)cc4)cn23)cc(OC)c1OC
pIC50 [1]: 7.19
pIC50 [2]: < 4.00

COc1cc(-c2nnc3ccc(-c4ccc(F)cc4)cn23)cc(OC)c1OC
pIC50 [1]: 7.60
pIC50 [2]: < 4.00
pIC50 [3]: 4.10
pIC50 [4]: < 4.00
pIC50 [5]: 4.12
inhibition [6]: 18%

COc1ccc(F)cc1-c1ccc2nnc(-c3cc(OC)c(OC)c(OC)c3)n2c1
pIC50 [1]: 6.19

COc1ccc(-c2nnc3ccc(-c4cc(OC)c(OC)c(OC)c4)cn23)cc1[N+](=O)[O-]
pIC50 [1]: < 4.60

COc1ccc(/C=C\c2cc(OC)c(OC)c(OC)c2)cc1O [COMBRETASTATIN A4]
pIC50 [1]: 8.33
pIC50 [4]: 6.77
inhibition [6]: 79%
Activity [35]: Active

COc1cc(-c2nnc3ccc(-c4ccccc4OC(F)(F)F)cn23)cc(OC)c1OC
pIC50 [1]: 4.65

COc1ccc(-c2ccc3nnc(-c4cc(OC)c(OC)c(OC)c4)n3c2)cc1O
pIC50 [1]: 7.35
pIC50 [2]: < 4.00
pIC50 [3]: 4.75
pIC50 [4]: < 4.00
pIC50 [5]: < 4.00
inhibition [6]: 14%

COc1cc(-c2ccc3nnc(-c4ccc(Cl)c(Cl)c4)n3c2)cc(OC)c1OC
pIC50 [1]: < 4.60

COc1ccccc1-c1ccc2nnc(-c3cc(OC)c(OC)c(OC)c3)n2c1
pIC50 [1]: 7.08
pIC50 [2]: < 4.00
pIC50 [3]: 5.03
pIC50 [4]: 4.86
pIC50 [5]: 4.50
inhibition [6]: 16%

COc1cc(F)ccc1-c1ccc2nnc(-c3cc(OC)c(OC)c(OC)c3)n2c1
pIC50 [1]: 6.82

Reference: ChEMBL document CHEMBL4765401, “Synthesis, and biological evaluation of 3,6-diaryl-[1,2,4]triazolo[4,3-a]pyridine analogues as new potent tubulin polymerization inhibitors” (Eur J Med Chem, 2020)
